Results reported in patent publication US9113629B2, “4-amino-6-(4-substituted-phenyl)-picolinates and 6-amino-2-(4-substituted-phenyl)-pyrimidine-4-carboxylates and their use as herbicides” (DOW AGROSCIENCES LLC, priority 2013, dated 2015).
Read-outs that look alike come from different tables or passages of the source.

What was measured:
[1] = system: Key Grass and Sedge Weeds as well as Grass Crops; test: Post-emergent Test II herbicidal activity (Table 6); assay type: in vivo; details: post-emergence, 336 h; for pest or weed control at 70 g/ha: 70 g ai/ha; for pest or weed control at 140 g/ha: 140 g ai/ha
Summary of the method: (§1)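 Plants grown in Metro-Mix 360 (pH 6.0–6.8) in a greenhouse (~15 h photoperiod, 23–29 °C day) to first or second true leaf stage, then sprayed with compound in acetone/DMSO/aqueous crop-oil-surfactant carrier at 187 L/ha by track sprayer. Injury visually scored 0–100% versus untreated plants after 14 d.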

[2] = system: Key Broadleaf Weed and Crop Species; test: Post-emergent Test II herbicidal activity (Table 5); assay type: in vivo; details: post-emergence, 336 h, 14 days after application; for pest or weed control at 70 g/ha: application rate 70 g ai/ha; for pest or weed control at 140 g/ha: application rate 140 g ai/ha
Summary of the method: as §1

[3] = CYPES: yellow nutsedge (Cyperus esculentus), read-out: Visual Growth Reduction (%) 14 Days After Application, CYPES
[4] = DIGSA: crabgrass (Digitaria sanguinalis), read-out: Visual Growth Reduction (%) 14 Days After Application, DIGSA
[5] = ECHCG: barnyardgrass (Echinochloa crus-galli), read-out: Visual Growth Reduction (%) 14 Days After Application, ECHCG
[6] = ORYSA: rice (Oryza sativa), crop, read-out: Visual Growth Reduction (%) 14 Days After Application, ORYSA
[7] = SETFA: giant foxtail (Setaria faberi), read-out: Visual Growth Reduction (%) 14 Days After Application, SETFA
[8] = SORVU: grain sorghum (Sorghum vulgare), read-out: Visual Growth Reduction (%) 14 Days After Application, SORVU
[9] = TRZSS (wheat, Triticum aestivum), crop, read-out: Visual Growth Reduction (%) 14 Days After Application, TRZSS
[10] = ZEAMX: maize, corn (Zea mays), crop, read-out: Visual Growth Reduction (%) 14 Days After Application, ZEAMX
[11] = ABUTH: velvetleaf (Abutilon theophrasti), read-out: Visual Growth Reduction (%) 14 Days After Application, ABUTH
[12] = AMARE: redroot pigweed (Amaranthus retroflexus), read-out: Visual Growth Reduction (%) 14 Days After Application, AMARE
[13] = BRSNN: oilseed-rape, canola (Brassica napus), read-out: Visual Growth Reduction (%) 14 Days After Application, BRSNN
[14] = CHEAL: lambsquarters (Chenopodium album), read-out: Visual Growth Reduction (%) 14 Days After Application, CHEAL
[15] = EPHHL: wild poinsettia (Euphorbia heterophylla), read-out: Visual Growth Reduction (%) 14 Days After Application, EPHHL
[16] = HELAN: sunflower (Helianthus annuus), read-out: Visual Growth Reduction (%) 14 Days After Application, HELAN
[17] = VIOTR: wild pansy (Viola tricolor), read-out: Visual Growth Reduction (%) 14 Days After Application, VIOTR

Q: For Nc1c(F)c(-c2ccc([N+](=O)[O-])cc2)nc(C(=O)O)c1Cl [Compound 31, 4-amino-3-chloro-5-fluoro-6-(4-nitrophenyl)picolinic acid], which melting point is on record?
A: The melting point was 180 to 181 °C.

Q: And the pest or weed control at 70 g/ha [1, 3]?
A: Its pest or weed control at 70 g/ha is 0 to 29%.

Q: And the pest or weed control at 140 g/ha [1, 3]?
A: Its pest or weed control at 140 g/ha is 0 to 29%.

Q: What about the pest or weed control at 70 g/ha [1, 4] of the same molecule?
A: Its pest or weed control at 70 g/ha is 60 to 74%.

Q: What about the pest or weed control at 140 g/ha [1, 4] of the same molecule?
A: The pest or weed control at 140 g/ha was 60 to 74%.

Q: And the pest or weed control at 70 g/ha [1, 5]?
A: Its pest or weed control at 70 g/ha is 75 to 84%.

Q: What about the pest or weed control at 140 g/ha [1, 5] of the same molecule?
A: Its pest or weed control at 140 g/ha is 85 to 94%.

Q: And the pest or weed control at 70 g/ha [1, 6]?
A: Its pest or weed control at 70 g/ha is 0 to 29%.

Q: What about the pest or weed control at 140 g/ha [1, 6] of the same molecule?
A: The pest or weed control at 140 g/ha was 0 to 29%.

Q: And the pest or weed control at 70 g/ha [1, 7]?
A: Its pest or weed control at 70 g/ha is 0 to 29%.

Q: What about the pest or weed control at 140 g/ha [1, 7] of the same molecule?
A: Its pest or weed control at 140 g/ha is 0 to 29%.

Q: And the pest or weed control at 70 g/ha [1, 8]?
A: Its pest or weed control at 70 g/ha is 0 to 29%.

Q: And the pest or weed control at 140 g/ha [1, 8]?
A: The pest or weed control at 140 g/ha was 0 to 29%.

Q: And the pest or weed control at 70 g/ha [1, 9]?
A: Its pest or weed control at 70 g/ha is 0 to 29%.

Q: What about the pest or weed control at 140 g/ha [1, 9] of the same molecule?
A: Its pest or weed control at 140 g/ha is 0 to 29%.

Q: What about the pest or weed control at 70 g/ha [1, 10] of the same molecule?
A: Its pest or weed control at 70 g/ha is 0 to 29%.

Q: What about the pest or weed control at 140 g/ha [1, 10] of the same molecule?
A: Its pest or weed control at 140 g/ha is 0 to 29%.

Q: What about the pest or weed control at 70 g/ha [2, 11] of the same molecule?
A: The pest or weed control at 70 g/ha was 0 to 29%.

Q: And the pest or weed control at 140 g/ha [2, 11]?
A: Its pest or weed control at 140 g/ha is 0 to 29%.

Q: What about the pest or weed control at 70 g/ha [2, 12] of the same molecule?
A: Its pest or weed control at 70 g/ha is 95 to 100%.

Q: And the pest or weed control at 140 g/ha [2, 12]?
A: The pest or weed control at 140 g/ha was 95 to 100%.

Q: What about the pest or weed control at 70 g/ha [2, 13] of the same molecule?
A: Its pest or weed control at 70 g/ha is 30 to 44%.

Q: What about the pest or weed control at 140 g/ha [2, 13] of the same molecule?
A: The pest or weed control at 140 g/ha was 45 to 59%.

Q: And the pest or weed control at 70 g/ha [2, 14]?
A: Its pest or weed control at 70 g/ha is 60 to 74%.

Q: What about the pest or weed control at 140 g/ha [2, 14] of the same molecule?
A: Its pest or weed control at 140 g/ha is 85 to 94%.

Q: What about the pest or weed control at 70 g/ha [2, 15] of the same molecule?
A: The pest or weed control at 70 g/ha was 0 to 29%.

Q: What about the pest or weed control at 140 g/ha [2, 15] of the same molecule?
A: Its pest or weed control at 140 g/ha is 0 to 29%.

Q: What about the pest or weed control at 70 g/ha [2, 16] of the same molecule?
A: Its pest or weed control at 70 g/ha is 95 to 100%.

Q: And the pest or weed control at 140 g/ha [2, 16]?
A: Its pest or weed control at 140 g/ha is 95 to 100%.

Q: What about the pest or weed control at 70 g/ha [2, 17] of the same molecule?
A: Its pest or weed control at 70 g/ha is 0 to 29%.

Q: What about the pest or weed control at 140 g/ha [2, 17] of the same molecule?
A: Its pest or weed control at 140 g/ha is 0 to 29%.
